The text below walks through data of publication PMC5790795, “N-Acetylmuramic Acid (MurNAc) Auxotrophy of the Oral Pathogen Tannerella forsythia: Characterization of a MurNAc Kinase and Analysis of Its Role in Cell Wall Metabolism” (Frontiers in Microbiology, 2018).

The assay has as its target T1, Tf_MurK (rTf_MurK; Tanf_08380) (Tannerella forsythia, UniProt G8UQH1).
T1 construct: gene BFO_0034
T1 sequence (G8UQH1 19-302): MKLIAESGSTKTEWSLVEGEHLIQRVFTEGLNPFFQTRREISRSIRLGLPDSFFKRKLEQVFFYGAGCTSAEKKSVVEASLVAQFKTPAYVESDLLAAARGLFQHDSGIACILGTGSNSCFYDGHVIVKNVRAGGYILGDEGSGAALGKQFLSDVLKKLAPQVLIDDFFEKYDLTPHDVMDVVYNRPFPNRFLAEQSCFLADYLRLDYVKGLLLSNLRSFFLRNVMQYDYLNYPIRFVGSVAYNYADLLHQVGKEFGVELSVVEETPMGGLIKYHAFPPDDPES
Kind of assay: coupled pyruvate kinase / lactate dehydrogenase assay, NADH at […] nm. The class given is biochemical. The note with it: ATP, 10 mM MgCl2, 50 mM phosphate pH 7.0, 20 °C; substrate inhibition constant.

Turning to `CC(=O)N[C@H]1C(O)O[C@H](CO)[C@@H](O)[C@@H]1O[C@H](C)C(=O)O` (stereo partly shown) [MurNAc], the “Ki(S)” value was found to be 4.2 mM.
